Measurements reported in ChEMBL document CHEMBL1201862, “PubChem BioAssay data set” (2004).
Active and inactive are the calls of the source.

Legend:
[1] = target: T1, Tyrosine-protein phosphatase non-receptor type 7 (Homo sapiens, UniProt P35236); assay: SAR analysis of chemical inhibitors of HePTP using a Fluorescent assay - Set 2. [Related pubchem assays (depositor defined):AID1059, AID1077, AID1661, AID2085, AID521]; type: functional
T1 sequence (P35236 whole entry): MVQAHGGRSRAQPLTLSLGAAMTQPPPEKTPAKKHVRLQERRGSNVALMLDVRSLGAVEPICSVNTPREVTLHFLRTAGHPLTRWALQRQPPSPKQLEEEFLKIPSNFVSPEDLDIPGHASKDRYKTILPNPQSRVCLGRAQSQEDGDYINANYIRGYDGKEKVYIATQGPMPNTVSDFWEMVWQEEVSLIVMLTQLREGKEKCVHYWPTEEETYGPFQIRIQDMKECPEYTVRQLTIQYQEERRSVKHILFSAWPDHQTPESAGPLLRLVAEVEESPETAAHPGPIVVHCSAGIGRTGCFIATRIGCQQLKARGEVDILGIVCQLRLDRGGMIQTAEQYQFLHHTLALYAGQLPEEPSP

[2] = target: Dual specificity protein phosphatase 3 (Homo sapiens, UniProt P51452); assay: SAR VHR1 Fluorescent Assay for In Vitro dose response studies Set 2. [Related pubchem assays (depositor defined):AID1654, AID1661, AID1878]; type: functional
Sequence of Dual specificity protein phosphatase 3 (P51452 whole entry): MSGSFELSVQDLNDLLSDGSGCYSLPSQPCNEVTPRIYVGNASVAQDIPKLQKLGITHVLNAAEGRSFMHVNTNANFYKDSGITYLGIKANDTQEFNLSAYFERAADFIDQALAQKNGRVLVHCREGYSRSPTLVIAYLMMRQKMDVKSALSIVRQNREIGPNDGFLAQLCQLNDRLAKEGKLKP

[3] = target: T2, Replicative DNA helicase DnaB (Mycobacterium tuberculosis, UniProt P9WMR3); assay: DnaB intein splicing inhibitors, dose response, biochemical, cell-free fluorescence (AID 449749); type: functional
T2 sequence (P9WMR3 whole entry): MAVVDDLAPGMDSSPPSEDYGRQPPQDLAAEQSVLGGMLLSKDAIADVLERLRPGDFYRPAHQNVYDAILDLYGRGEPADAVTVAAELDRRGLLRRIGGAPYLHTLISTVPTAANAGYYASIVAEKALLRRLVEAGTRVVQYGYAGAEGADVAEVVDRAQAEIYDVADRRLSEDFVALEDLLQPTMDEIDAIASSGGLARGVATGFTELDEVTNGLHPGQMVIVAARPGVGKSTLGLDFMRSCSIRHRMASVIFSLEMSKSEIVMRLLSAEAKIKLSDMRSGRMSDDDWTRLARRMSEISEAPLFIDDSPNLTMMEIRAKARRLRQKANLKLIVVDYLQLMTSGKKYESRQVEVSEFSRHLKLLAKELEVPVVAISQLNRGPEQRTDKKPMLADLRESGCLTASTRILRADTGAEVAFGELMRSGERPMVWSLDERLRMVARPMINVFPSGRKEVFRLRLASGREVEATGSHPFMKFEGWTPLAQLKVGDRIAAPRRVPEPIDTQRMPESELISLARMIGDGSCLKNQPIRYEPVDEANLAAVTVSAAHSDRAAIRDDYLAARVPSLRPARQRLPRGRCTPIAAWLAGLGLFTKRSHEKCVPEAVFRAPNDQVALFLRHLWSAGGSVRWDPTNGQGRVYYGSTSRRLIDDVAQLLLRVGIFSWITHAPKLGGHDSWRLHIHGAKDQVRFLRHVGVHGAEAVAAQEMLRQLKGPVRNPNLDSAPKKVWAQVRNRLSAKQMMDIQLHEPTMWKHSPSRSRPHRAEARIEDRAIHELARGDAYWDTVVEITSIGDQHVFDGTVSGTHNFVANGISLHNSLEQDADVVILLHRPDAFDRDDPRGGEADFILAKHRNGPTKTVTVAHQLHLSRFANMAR

[4] = DRD fibroblast viability loss – cell-based, non-viral oncogenic, luminescence, dose response (AID 1934); type: functional; details: Homo sapiens
[5] = general cell-killing toxicity readout – plate reader, dry powder samples, cytotoxicity control for PAX8 inhibitor project, dose response (AID 743021); type: functional, cell-based
[6] = system: BJ; assay: BJ-TERT-LT-ST fibroblast viability loss – cell-based, RAS-independent, luminescence, dose response (AID 1935); type: functional; details: Homo sapiens;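 also: BJ fibroblasts immortalized with TERT plus LT and ST oncogenes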
[7] = Intein inhibitors as potential Tuberculosis drugs, a cytotoxicity screen. [Related pubchem assays (depositor defined):AID2221, AID2223, AID434968, AID435010, AID449749, AID449750, AID489010]; type: functional
[8] = target: T3, Protein RecA (Mycobacterium tuberculosis, UniProt P9WHJ3); assay: Fluorescence Cell-Free Homogeneous Dose Retest to Identify Inhibitors of RecA-Intein Splicing Activity. [Related pubchem assays (depositor defined):AID2097, AID2223, AID489010, AID492950]; type: functional
T3 sequence (P9WHJ3 whole entry): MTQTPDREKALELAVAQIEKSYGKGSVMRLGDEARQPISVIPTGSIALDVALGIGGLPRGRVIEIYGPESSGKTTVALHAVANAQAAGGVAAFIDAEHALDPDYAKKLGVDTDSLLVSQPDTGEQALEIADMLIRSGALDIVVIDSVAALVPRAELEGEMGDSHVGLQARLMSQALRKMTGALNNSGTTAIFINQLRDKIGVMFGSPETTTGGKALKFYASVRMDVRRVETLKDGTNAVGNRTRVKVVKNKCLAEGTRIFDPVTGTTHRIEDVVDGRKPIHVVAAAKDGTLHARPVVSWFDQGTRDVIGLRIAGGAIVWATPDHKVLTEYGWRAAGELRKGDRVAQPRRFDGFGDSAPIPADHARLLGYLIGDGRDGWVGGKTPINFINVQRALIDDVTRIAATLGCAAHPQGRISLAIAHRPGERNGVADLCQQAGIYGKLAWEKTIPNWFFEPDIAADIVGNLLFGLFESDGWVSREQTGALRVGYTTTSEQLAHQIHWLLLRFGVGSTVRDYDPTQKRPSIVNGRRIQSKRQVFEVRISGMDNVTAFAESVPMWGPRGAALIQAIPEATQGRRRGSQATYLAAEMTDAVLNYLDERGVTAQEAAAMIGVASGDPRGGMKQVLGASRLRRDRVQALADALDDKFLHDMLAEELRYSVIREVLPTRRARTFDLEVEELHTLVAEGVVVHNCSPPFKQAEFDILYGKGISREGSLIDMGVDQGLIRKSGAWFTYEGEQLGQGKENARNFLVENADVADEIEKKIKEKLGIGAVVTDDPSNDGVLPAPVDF

[9] = target: Paired box protein Pax-8 (Homo sapiens, UniProt Q06710); assay: PAX8 transcriptional activity inhibition in RMG-I – RMG-I cells, luciferase, cherry-pick, dose response (AID 687027); type: functional, cell-based;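 also: luciferase reporter driven by Pax8 target thyroperoxidase promoter measured by SteadyGlo luminescence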
Sequence of Paired box protein Pax-8 (Q06710 whole entry): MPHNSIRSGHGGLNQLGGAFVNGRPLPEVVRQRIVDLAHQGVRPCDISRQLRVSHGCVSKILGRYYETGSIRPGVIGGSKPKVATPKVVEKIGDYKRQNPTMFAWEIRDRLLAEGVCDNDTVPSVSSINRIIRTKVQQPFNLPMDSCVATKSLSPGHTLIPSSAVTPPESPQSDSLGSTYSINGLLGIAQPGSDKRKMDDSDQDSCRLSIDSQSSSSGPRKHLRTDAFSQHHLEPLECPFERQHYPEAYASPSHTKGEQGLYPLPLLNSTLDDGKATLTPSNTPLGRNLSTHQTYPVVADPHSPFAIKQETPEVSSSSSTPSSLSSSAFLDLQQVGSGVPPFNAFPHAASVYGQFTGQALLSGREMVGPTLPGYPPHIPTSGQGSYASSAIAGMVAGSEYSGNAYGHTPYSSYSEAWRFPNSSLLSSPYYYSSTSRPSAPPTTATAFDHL

[10] = system: BJ; assay: cells; type: functional, cell-based; details: Homo sapiens
[11] = system: BJ; assay: BJ-TERT fibroblast viability loss – cell-based, RAS-independent, luminescence, dose response (AID 1933); type: functional; details: Homo sapiens
[12] = target: Lysosomal acid glucosylceramidase (Homo sapiens, UniProt P04062); assay: Dose response cell-based high throughput screening assay to identify enhancers of beta-glucosidase activity. [Related pubchem assays: 784 ]; type: functional
Sequence of Lysosomal acid glucosylceramidase (P04062 whole entry): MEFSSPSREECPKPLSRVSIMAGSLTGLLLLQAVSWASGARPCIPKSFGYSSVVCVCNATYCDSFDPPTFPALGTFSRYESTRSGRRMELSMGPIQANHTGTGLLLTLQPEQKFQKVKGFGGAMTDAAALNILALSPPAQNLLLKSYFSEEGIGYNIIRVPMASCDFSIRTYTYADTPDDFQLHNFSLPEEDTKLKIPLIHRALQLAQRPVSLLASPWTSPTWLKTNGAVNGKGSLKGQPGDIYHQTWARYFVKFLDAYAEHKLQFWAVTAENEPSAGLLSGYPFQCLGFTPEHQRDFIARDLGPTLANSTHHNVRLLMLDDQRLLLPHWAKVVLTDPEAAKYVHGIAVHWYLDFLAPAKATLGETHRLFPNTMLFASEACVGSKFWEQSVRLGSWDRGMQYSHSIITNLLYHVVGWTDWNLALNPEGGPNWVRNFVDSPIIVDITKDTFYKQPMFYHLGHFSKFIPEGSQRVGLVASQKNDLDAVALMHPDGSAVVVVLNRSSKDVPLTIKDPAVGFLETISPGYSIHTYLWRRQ

[13] = target: DNA dC->dU-editing enzyme APOBEC-3A (Homo sapiens, UniProt P31941); assay: A3A deaminase inhibition for selectivity – biochemical, dose response (AID 504722); type: functional
Sequence of DNA dC->dU-editing enzyme APOBEC-3A (P31941 whole entry): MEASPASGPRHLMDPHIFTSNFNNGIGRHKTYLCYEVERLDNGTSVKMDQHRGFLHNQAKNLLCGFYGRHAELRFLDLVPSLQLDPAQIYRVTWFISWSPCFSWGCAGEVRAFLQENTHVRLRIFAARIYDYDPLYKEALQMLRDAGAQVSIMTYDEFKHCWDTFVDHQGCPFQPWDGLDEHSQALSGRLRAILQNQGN

[14] = target: DNA dC->dU-editing enzyme APOBEC-3G (Homo sapiens, UniProt Q9HC16); assay: Dose Response confirmation of small molecule APOBEC3G DNA Deaminase Inhibitors via a fluorescence-based single-stranded DNA deaminase assay. [Related pubchem assays (depositor defined):AID493012, AID493028]; type: functional
Sequence of DNA dC->dU-editing enzyme APOBEC-3G (Q9HC16 whole entry): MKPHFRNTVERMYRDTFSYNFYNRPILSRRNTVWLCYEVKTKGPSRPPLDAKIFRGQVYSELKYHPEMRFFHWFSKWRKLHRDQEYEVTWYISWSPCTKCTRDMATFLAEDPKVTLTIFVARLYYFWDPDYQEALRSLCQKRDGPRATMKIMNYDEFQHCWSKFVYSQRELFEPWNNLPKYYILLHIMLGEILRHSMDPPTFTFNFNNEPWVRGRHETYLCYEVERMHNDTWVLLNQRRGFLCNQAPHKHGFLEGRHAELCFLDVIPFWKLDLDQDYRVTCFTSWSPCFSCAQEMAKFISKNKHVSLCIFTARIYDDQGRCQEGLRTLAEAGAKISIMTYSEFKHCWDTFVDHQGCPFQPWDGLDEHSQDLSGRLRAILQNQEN
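For CC50 in this document: cells exposed to compound for 72 hours before luminescence readout.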

With `NS(=O)(=O)c1ccc(NC(=S)N2CCN(Cc3ccccc3)CC2)cc1` the IC50 [1] was 49.7 µM (active) and the IC50 [2] was 38.1 µM (active).
In the case of `CC(=O)n1cc(N(C(=O)CCl)c2ccccc2)c2ccccc21`, the AC50 [3] is reported as 2.3 µM (active), the EC50 [4] is reported as 0.912 µM (active) and the AC50 [5] is reported as 4.84 µM (active). The EC50 [6] was 5.99 µM (active), the CC50 [7] was 1.16 µM (active) and the EC50 [8] was 0.347 µM (active). The AC50 [9] was 1.34 µM (active), the EC50 [10] was 1.51 µM (inconclusive) and the EC50 [11] was 0.654 µM (inconclusive).
For `Cc1ccc(C)c(N(C)S(=O)(=O)c2cccc3nsnc23)c1`, the EC50 [12] was > 50 µM (not active).
In the case of `N#Cc1c(S)nc2c(c1-c1cccnc1)CCCC2`, the IC50 [13] is reported as > 100 µM (inactive) and the IC50 [14] is reported as 2.72 µM (active).
In the case of `N#Cc1c(-c2ccncc2)c2c([nH]c1=S)CCCC2`, the IC50 [13] is reported as > 100 µM (inactive) and the IC50 [14] is reported as 2.21 µM (active).
